Assay: xn = mol fraction of the nth substance listed

C=CCN(CC=C)C(=O)C(Cl)Cl + CCO
viscosity [mPa·s], 101 kPa
Conditions	x1 = 0.004764	x1 = 0.01126	x1 = 0.01785	x1 = 0.02455	x1 = 0.03127	x1 = 0.03725	x1 = 0.04407
293.15 K	1.208	1.238	1.258	1.284	1.314	1.334	1.372
298.15 K	1.108	1.134	1.162	1.178	1.201	1.215	1.245
303.15 K	1.008	1.025	1.043	1.062	1.08	1.1	1.116
308.15 K	0.9132	0.9322	0.9453	0.9641	0.9854	0.9997	1.02
313.15 K	0.832	0.8475	0.8596	0.8743	0.8941	0.9139	0.9264

C1COCO1 + CC(=O)O
298.15 K, 101 kPa
Conditions	viscosity [mPa·s]
x1 = 0.0826	1.097
x1 = 0.1685	1.076
x1 = 0.2578	1.042
x1 = 0.3508	0.996
x1 = 0.4477	0.9442
x1 = 0.5487	0.883
x1 = 0.6541	0.8162
x1 = 0.7643	0.7415
x1 = 0.8795	0.6626

O=C(O)[C@@H](O)[C@@H](O)C(=O)O + O
298 K, 101.3 kPa
Conditions	viscosity [mPa·s]
x1 = 0.000823	0.9012
x1 = 0.00165	0.9144
x1 = 0.003567	0.9399
x1 = 0.005454	0.9656
x1 = 0.006888	0.99
x1 = 0.00872	1.018
x1 = 0.01004	1.034
x1 = 0.01181	1.066

CCCCCCCCC + CCCCCCCC
298.15 K, 101.33 kPa
Conditions	viscosity [mPa·s]
x2 = 0.1092	0.631
x2 = 0.2071	0.6264
x2 = 0.3038	0.6069
x2 = 0.4058	0.5951
x2 = 0.5051	0.5768
x2 = 0.6076	0.5586
x2 = 0.7044	0.5497
x2 = 0.8047	0.5318
x2 = 0.9025	0.5116

CC(C)OC(C)C + CCC(C)O
viscosity [mPa·s], 100 kPa
Conditions	x1 = 0.0813	x1 = 0.1604	x1 = 0.2406	x1 = 0.341	x1 = 0.447	x1 = 0.5582	x1 = 0.6505	x1 = 0.7374	x1 = 0.8465	x1 = 0.9346
293.15 K	3	2.51	2.1	1.653	1.304	0.976	0.772	0.623	0.473	0.384
298.15 K	2.51	2.09	1.75	1.395	1.122	0.846	0.678	0.56	0.44	0.365
303.15 K	2.11	1.742	1.453	1.16	0.95	0.75	0.619	0.522	0.414	0.344
308.15 K	1.76	1.48	1.241	1.004	0.834	0.67	0.558	0.473	0.388	0.325
313.15 K	1.49	1.25	1.06	0.87	0.73	0.596	0.51	0.44	0.361	0.307
318.15 K	1.28	1.074	0.92	0.769	0.65	0.535	0.46	0.4	0.333	0.29
323.15 K	1.1	0.931	0.801	0.67	0.575	0.48	0.416	0.367	0.31	0.27

O=S(Cl)Cl + CCOCC
298.15 K, 101 kPa
Conditions	viscosity [mPa·s]
x1 = 0.334	0.3365
x1 = 0.845	0.548

CC(=O)c1ccccc1 + CCOC(=O)OCC
viscosity [mPa·s], 101 kPa
Conditions	x2 = 0.0972	x2 = 0.1515	x2 = 0.2512	x2 = 0.3615	x2 = 0.4921	x2 = 0.5705	x2 = 0.6654	x2 = 0.7584	x2 = 0.8932	x2 = 0.9425
303.15 K	1.413	1.358	–	1.155	–	0.977	0.906	0.843	0.76	0.732
308.15 K	1.286	1.237	1.15	1.059	0.958	0.902	0.839	0.783	0.708	0.683
313.15 K	1.205	1.159	1.079	0.995	0.901	0.85	0.791	0.738	0.669	0.646

CCCCCCn1cc[n+](C)c1.[Br-] + O
303.15 K, 101 kPa
Conditions	viscosity [mPa·s]
x2 = 0.2196	695.5
x2 = 0.2978	395.5

CCC(O)CC + COc1ccccc1
viscosity [mPa·s], 101.33 kPa
Conditions	x2 = 0.1007	x2 = 0.2006	x2 = 0.3001	x2 = 0.3996	x2 = 0.5	x2 = 0.5999	x2 = 0.6973	x2 = 0.7998	x2 = 0.8971
303.15 K	2.787	2.043	1.547	1.238	1.062	0.976	0.941	0.927	0.917
313.15 K	1.745	1.355	1.093	0.938	0.863	0.835	0.824	0.811	0.793
323.15 K	1.261	1.041	0.888	0.795	0.747	0.729	0.719	0.709	0.697

C1COCO1 + CC(C)O
303.15 K, 101 kPa
Conditions	viscosity [mPa·s]
x1 = 0.08269	1.212
x1 = 0.1686	0.9776
x1 = 0.258	0.8386
x1 = 0.351	0.7477
x1 = 0.4479	0.6645
x1 = 0.5489	0.6082
x1 = 0.6543	0.6033
x1 = 0.7644	0.5856
x1 = 0.8795	0.5637

C[n+]1cc([O-])on1 + O
313.15 K, 101 kPa
Conditions	viscosity [mPa·s]
x2 = 0.1304	4.405
x2 = 0.2625	3.634
x2 = 0.4242	2.894
x2 = 0.6104	2.178
x2 = 0.7384	1.687
x2 = 0.882	1.121
x2 = 0.9089	1.015
x2 = 0.9709	0.775
x2 = 0.9746	0.768

FCC(F)(F)F + FCF
viscosity [mPa·s], 101 kPa
Conditions	x1 = 0.245	x1 = 0.518	x1 = 0.756
298.15 K	0.1241	0.1379	0.1592
313.15 K	0.1031	0.1152	0.129

O=S(=O)([N-]S(=O)(=O)C(F)(F)C(F)(F)F)C(F)(F)F.[Li+] + O
101 kPa, x1 = 0.3
Conditions	viscosity [mPa·s]
293.15 K	145
298.15 K	114
303.15 K	89.8
313.15 K	58.8
323.15 K	40.2

From the CheMixHub viscosity set
